Active and inactive are the calls of the source. Some results are limits rather than exact numbers.

The target in assay [1] is T1, Endoribonuclease toxin MazF (Escherichia coli K-12, UniProt P0AE70).
T1 sequence (P0AE70 whole entry): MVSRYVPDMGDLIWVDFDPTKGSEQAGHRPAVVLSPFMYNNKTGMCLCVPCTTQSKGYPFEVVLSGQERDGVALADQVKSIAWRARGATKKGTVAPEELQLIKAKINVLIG
The experiment in a line: MazF toxin RNase activators, dose response, biochemical, fluorescence, single-stranded RNA substrate, uHTS hits (AID 588481). The format is functional.

Assay [2] deals with T1, Endoribonuclease toxin MazF. The assay is described as follows: SAR analysis of small molecule activators of the MazEF TA System via a fluorescence-based single-stranded RNase assay counterscreen. [Related pubchem assays (depositor defined):AID504720, AID504743]. The format is functional.
Another assay deals with MEF. The experiment in a line: SAR analysis of small molecule cytotoxicity of MazEF TA System activators in embryonic fibroblast (MEF) cells. [Related pubchem assays (depositor defined):AID504720, AID504743]. The format is functional. As to conditions: Mus musculus.
For assay [3], the target named is T1, Endoribonuclease toxin MazF. The experiment in a line: MazF endoribonuclease activators, SAR follow-up, biochemical, fluorescence, single-stranded RNA substrate (AID 588603). The format is functional.
For assay [4] the target is unchanged. The experiment in a line: fluorescent RNA oligo signal without MazF, dose response, counter-screen for MazEF activator project, biochemical, fluorescence, single-stranded RNase substrate (AID 588502). The format is functional. Background: The purpose of a counterscreen is to sort out artefacts and off-target activity.
Assay [5] has as its target T2, Sentrin-specific protease 8 (Homo sapiens, UniProt Q96LD8).
T2 sequence (Q96LD8 whole entry): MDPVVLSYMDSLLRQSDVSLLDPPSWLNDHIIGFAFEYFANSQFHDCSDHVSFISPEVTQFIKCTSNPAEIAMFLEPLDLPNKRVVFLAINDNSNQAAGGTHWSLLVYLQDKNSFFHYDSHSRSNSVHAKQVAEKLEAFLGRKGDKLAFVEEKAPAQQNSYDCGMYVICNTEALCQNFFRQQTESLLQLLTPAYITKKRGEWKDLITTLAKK
The experiment in a line: SENP8 protease inhibitors, SAR follow-up, biochemical, luminescence (AID 504501). The format is functional.

The target of assay [6] is T3, Sentrin-specific protease 6 (Homo sapiens, UniProt Q9GZR1).
T3 sequence (Q9GZR1 whole entry): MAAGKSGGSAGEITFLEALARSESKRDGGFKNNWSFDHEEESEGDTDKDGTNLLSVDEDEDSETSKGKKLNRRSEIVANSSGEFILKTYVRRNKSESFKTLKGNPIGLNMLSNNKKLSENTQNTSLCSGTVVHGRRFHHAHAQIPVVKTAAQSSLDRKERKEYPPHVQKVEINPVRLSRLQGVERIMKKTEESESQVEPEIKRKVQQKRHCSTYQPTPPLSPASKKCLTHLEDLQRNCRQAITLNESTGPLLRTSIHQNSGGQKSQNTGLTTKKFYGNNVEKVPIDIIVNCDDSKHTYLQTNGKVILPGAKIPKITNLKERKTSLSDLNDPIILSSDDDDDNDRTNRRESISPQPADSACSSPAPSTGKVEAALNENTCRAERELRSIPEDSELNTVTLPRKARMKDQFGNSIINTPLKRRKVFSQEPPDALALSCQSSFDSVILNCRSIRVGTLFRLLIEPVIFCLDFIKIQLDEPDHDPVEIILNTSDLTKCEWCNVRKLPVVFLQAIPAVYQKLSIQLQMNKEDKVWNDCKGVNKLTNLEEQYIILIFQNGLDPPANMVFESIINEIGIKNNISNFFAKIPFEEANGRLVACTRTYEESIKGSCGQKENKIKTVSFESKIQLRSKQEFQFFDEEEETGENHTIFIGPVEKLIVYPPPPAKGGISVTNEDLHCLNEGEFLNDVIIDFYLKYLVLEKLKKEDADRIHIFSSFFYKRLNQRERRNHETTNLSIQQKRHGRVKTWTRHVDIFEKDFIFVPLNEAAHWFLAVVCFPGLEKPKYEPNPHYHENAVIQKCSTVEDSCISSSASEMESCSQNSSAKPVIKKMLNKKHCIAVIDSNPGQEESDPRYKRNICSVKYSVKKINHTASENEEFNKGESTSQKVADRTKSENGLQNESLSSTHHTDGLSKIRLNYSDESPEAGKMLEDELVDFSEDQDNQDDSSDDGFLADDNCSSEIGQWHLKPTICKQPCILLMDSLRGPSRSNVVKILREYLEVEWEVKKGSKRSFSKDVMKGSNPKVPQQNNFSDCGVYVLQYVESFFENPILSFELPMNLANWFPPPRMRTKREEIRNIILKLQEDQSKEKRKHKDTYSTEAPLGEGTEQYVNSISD
The assay is described as follows: SAR Analysis of small molecule inhibitors of Sentrin-specific protease 6 (SENP6) using a Luminescent assay. [Related pubchem assays (depositor defined):AID2582, AID2599]. It counts as functional.

The target of a further assay is T4, Caspase-3 (Homo sapiens, UniProt P42574).
T4 sequence (P42574 whole entry): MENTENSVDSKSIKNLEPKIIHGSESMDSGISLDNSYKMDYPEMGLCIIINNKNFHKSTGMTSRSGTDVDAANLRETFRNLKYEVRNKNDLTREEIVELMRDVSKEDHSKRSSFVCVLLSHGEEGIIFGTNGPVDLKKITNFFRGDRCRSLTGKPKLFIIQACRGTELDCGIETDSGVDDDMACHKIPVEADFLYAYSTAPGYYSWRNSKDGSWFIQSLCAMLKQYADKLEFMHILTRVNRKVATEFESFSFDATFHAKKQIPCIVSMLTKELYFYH
The experiment in a line: SAR Analysis of small molecule inhibitors of Sentrin-specific proteases (SENPs) using a Caspase-3 Selectivity assay. [Related pubchem assays (depositor defined):AID2540, AID2599, AID434973, AID489001]. It counts as functional.

In assay [7] the target is T5, Sentrin-specific protease 7 (Homo sapiens, UniProt Q9BQF6).
T5 sequence (Q9BQF6 whole entry): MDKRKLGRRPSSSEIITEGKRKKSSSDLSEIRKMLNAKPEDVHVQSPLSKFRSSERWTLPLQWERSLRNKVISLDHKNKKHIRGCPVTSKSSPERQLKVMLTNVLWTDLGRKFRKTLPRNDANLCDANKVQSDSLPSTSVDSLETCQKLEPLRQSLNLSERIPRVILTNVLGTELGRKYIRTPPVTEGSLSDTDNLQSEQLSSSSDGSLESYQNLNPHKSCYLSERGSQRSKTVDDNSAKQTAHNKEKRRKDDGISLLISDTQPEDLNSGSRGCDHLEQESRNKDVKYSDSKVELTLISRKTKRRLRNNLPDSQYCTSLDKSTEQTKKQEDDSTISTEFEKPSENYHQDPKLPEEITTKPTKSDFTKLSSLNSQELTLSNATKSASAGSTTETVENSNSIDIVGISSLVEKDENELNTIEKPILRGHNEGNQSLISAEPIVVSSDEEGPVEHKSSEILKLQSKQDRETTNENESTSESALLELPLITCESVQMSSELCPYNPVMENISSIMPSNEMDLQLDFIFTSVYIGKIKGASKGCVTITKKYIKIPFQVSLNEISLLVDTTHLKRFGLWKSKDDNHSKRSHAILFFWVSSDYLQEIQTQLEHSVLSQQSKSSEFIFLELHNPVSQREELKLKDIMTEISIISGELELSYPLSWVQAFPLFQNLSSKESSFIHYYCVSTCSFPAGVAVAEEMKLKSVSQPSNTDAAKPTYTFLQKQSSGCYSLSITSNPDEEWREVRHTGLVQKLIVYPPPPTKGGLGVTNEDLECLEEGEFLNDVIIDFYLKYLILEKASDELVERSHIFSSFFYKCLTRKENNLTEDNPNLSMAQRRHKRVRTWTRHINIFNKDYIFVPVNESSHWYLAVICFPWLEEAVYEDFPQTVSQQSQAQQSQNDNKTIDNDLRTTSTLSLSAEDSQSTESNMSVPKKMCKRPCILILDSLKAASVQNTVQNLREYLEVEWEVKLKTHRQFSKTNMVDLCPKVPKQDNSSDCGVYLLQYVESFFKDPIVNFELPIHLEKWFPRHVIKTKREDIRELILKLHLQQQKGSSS
The experiment in a line: SENP7 protease inhibitors, SAR follow-up, biochemical, luminescence (AID 504497). It counts as functional.

For a further assay, the target named is Troponin, cardiac muscle (Homo sapiens, UniProt P19429+P45379+P63316). The experiment in a line: Fluorescence-based biochemical high throughput dose response assay for activators of the calcium sensitivity of cardiac Regulated Thin Filaments (RTF). [Related pubchem assays (depositor defined):AID493008, AID493018, AID504382, AID504383]. It counts as protein-complex assay.

Assay [8] has as its target T6, High affinity choline transporter 1 (Homo sapiens, UniProt Q9GZV3).
T6 sequence (Q9GZV3 whole entry): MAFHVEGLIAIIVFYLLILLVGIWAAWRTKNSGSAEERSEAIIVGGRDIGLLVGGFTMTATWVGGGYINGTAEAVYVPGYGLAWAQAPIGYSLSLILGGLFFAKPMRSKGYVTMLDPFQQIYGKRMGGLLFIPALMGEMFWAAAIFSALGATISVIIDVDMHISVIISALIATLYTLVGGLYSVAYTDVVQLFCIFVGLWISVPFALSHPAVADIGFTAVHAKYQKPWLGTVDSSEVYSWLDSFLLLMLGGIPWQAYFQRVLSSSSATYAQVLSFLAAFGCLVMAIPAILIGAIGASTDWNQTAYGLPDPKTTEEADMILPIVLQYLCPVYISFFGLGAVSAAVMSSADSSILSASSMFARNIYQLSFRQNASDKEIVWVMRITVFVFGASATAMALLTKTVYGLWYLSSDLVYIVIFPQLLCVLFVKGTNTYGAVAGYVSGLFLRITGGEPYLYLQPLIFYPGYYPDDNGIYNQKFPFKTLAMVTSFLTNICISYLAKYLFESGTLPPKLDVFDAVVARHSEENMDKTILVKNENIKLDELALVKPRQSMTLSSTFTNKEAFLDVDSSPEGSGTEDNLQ
The experiment in a line: CHT activators, dose response, cell-based, 10-point CRC, membrane potential dye (AID 602376). It counts as functional.

For assay [9], the target named is DNA dC->dU-editing enzyme APOBEC-3A (Homo sapiens, UniProt P31941). The assay is described as follows: SAR analysis of small molecule inhibitors of APOBEC3A DNA Deaminase via a fluorescence-based single-stranded DNA deaminase assay. It counts as functional. The conditions noted are these: read-out: IC50_Mean.
DNA dC->dU-editing enzyme APOBEC-3A, sequence (P31941 whole entry): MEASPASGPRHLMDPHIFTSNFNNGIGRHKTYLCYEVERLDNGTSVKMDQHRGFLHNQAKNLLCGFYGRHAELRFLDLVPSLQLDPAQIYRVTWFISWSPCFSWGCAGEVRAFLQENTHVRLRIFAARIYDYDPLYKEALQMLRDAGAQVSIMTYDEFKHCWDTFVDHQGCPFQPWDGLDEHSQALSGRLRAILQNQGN
The target of assay [10] is DNA dC->dU-editing enzyme APOBEC-3G (Homo sapiens, UniProt Q9HC16). The experiment in a line: APOBEC3G deaminase inhibitors, SAR follow-up, biochemical, fluorescence, single-stranded DNA substrate (AID 602136). It counts as functional. As to conditions: read-out: IC50_Mean.
DNA dC->dU-editing enzyme APOBEC-3G, sequence (Q9HC16 whole entry): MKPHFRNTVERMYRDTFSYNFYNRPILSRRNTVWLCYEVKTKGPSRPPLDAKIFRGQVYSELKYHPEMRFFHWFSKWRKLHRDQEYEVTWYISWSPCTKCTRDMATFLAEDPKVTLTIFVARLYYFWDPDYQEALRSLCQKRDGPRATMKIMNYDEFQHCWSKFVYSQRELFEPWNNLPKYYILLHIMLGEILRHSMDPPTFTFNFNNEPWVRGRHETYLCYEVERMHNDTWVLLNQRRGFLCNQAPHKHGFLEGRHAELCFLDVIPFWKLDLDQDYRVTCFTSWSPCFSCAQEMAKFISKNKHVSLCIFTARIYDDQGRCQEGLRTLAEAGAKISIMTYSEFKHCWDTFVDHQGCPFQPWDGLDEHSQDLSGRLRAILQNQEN

The term EC50 denotes the midpoint of the concentration-response curve. As usually defined, the CC50 is the concentration at which the toxic effect on the cells reaches its halfway point. In the case of `N=c1c2c(ncn1CCCO)Oc1cc(O)ccc1C2c1ccccc1` (stereo not drawn), the EC50 in assay [1] was 6.82 µM (active); in assay [2], 78.8 µM (inactive); in assay [3], 6.2 µM (active); in assay [4] it was > 99 µM (inactive). In the assay with MEF, the CC50 was > 99 µM (inactive).
For `Oc1ccc(Cl)cc1/C=N/Nc1cc(N2CCCC2)nc(N2CCCC2)n1`, the IC50 (in assay [5]; in assay [6]; on Caspase-3; in assay [7]) was > 99 µM (inactive) each time.
Consider `CC(C)CN1CCN(Cc2cccn2-c2ccc(Cl)cn2)CC1CCO` (stereo not drawn), for which the EC50 on Troponin, cardiac muscle was > 71.5 µM (inactive); in assay [8] it was 8.24 µM (active).
With `O=C(CCN1CCSC1=O)Nc1cc(Cl)ccc1N1CCOCC1`, the IC50 in [9] and in assay [10] was > 99 µM (inactive) throughout.

The record behind these values is ChEMBL document CHEMBL1201862, “PubChem BioAssay data set” (2004).
